Article PMC9610975, “Microemulsions Enhance the In Vitro Antioxidant Activity of Oleanolic Acid in RAW 264.7 Cells” (Pharmaceutics, 2022)
Converted amounts (≈) assume the structure as drawn.

Key:
[1] = tested on: RAW 264.7 cells; experiment: MTT assay, LPS-induced reduction of cell viability; assay type: cell-based, murine; conditions: 18 h
Description: In in vitro cell-based experiments, cells were incubated in serum-free DMEM medium (starvation medium) for 6 h and then incubated for an additional 18 h in the presence of LPS (1 μg/mL). LPS was used as a pro-inflammatory and pro-oxidant stimulus. Cells untreated and not exposed to LPS stimulus were used as controls. The Methyl Thiazolyl Tetrazolium (MTT) assay was used to assess the viability of RAW 264.7 cells under various experimental conditions. Cells were seeded in a 96-well plate (15 × 10^3 cells/well) in complete medium and incubated overnight. Next, cells were starved for 6 h, and then treated for an additional 18 h with OA and OA loaded in the two different formulations (ME-1-OA and ME-2-OA) at various concentrations, in the absence or presence of LPS (1 μg/mL). […] Subsequently, cells were incubated with a 0.5 mg/mL solution of MTT (100 μL/well) for 1 h in the dark at 37 °C. After a wash in PBS, the insoluble formazan crystals were dissolved by adding 100 μL/well of dimethyl sulfoxide (DMSO). The iMARK microplate reader (Bio-Rad, Hercules, CA, USA) was used to measure absorbance values at a wavelength of 595 nm. Data were reported in percentage terms compared with untreated control cells not exposed to LPS. The experiment was repeated in triplicate.

[2] = tested on: RAW 264.7 cells; experiment: Intracellular ROS production (DCFDA probe) under LPS; assay type: cell-based, murine; conditions: 18 h
Description: In in vitro cell-based experiments, cells were incubated in serum-free DMEM medium (starvation medium) for 6 h and then incubated for an additional 18 h in the presence of LPS (1 μg/mL). LPS was used as a pro-inflammatory and pro-oxidant stimulus. Cells untreated and not exposed to LPS stimulus were used as controls. DCFDA fluorescent probe was used for sensitive and rapid quantification of intracellular ROS in response to LPS stimulus. Cells were seeded in a 96-well plate (20 × 10^3 cells/well) in complete medium and incubated overnight. After 6 h starvation, cells were treated for an additional 18 h with OA and OA loaded in the two different formulations (ME-1-OA and ME-2-OA) at various concentrations, in the absence or presence of LPS (1 μg/mL). […] Next, DCFDA probe (10 μM in PBS) was added to each well and incubated in the dark for 1.5 h at 37 °C. Fluorescence values were measured at excitation and emission wavelengths of 485 and 538 nm, respectively, using a fluorescence microplate reader (Fluoroskan Ascent^TM FL Microplate Fluorometer, Thermo Fisher Scientific, (Waltham, MA, USA). The level of intracellular ROS was normalized to cell viability. Data were reported in percentage terms compared with untreated control cells not exposed to LPS. The experiment was repeated in triplicate.

[3] = Saturation solubility of OA in different oils and surfactants; assay type: physicochemical; conditions: thermodynamic from solid
Description: The solubility of OA in different vehicles was defined by adding an excess of OA to 2 mL of each of the tested solvents/tensides: Water, Capmul PG-8/NF, Capmul PG-12/NF, Capryol 90, Captex 300, Captex 355, Cremophor EL, Etyl Oleate, Isoprpyl myristate, Labrafac lipophile, Labrafilm 1944, Labrafilm 2125, Labrasol, Labrasol ALF, Lauroglycol 90, Nigella Oil, PEG400, Soybean Oil, Sunflower Oil, Transcutol, Triacetine, Tween 20 and Tween 80. Each mixture of solvent and OA was stirred for 24 h at 25 °C, then it was centrifuged at 14,000× g for 10 min. After removing the precipitate, the supernatant was diluted with MeOH and analyzed by HPLC-DAD to determine the concentration of the OA. The analyses were performed in triplicate.

[4] = In vitro release, dialysis bag method, EtOH:PBS (30:70); assay type: physicochemical; conditions: 6 h, 37 °C
Description: The release studies of OA from MEs in comparison to OA solution (SDS 0.5% p/V in H2O) were carried out with the dialysis bag method (regenerated cellulose dialysis membranes, Spectrum Laboratories, Inc., Breda, The Netherlands, MWCO 12–14 kD). Two mL of the OA-MEs or the solution were placed into a 12–14 kDa dialysis membrane and immersed into 200 mL of the release medium at 37 °C under magnetic stirring, using EtOH:PBS (30:70) as the release medium. In vitro release study was also carried out in the simulated gastric fluid (SGF) medium at pH 1.2 for 2 h followed by simulated intestinal fluid (SIF) at pH 6.8 for 6 h. The composition of the gastric fluid was 2 g of NaCl and 7 mL of HCl per liter of deionized water. The intestinal fluid was composed of 6.805 g of KH2PO4 and 0.896 g of NaOH per liter of deionized water. At predetermined time intervals, 1 mL of each release medium was withdrawn and replaced with an equal volume of fresh solution. The OA concentration in samples was finally determined by HPLC-DAD. All studies were performed in triplicate.
To evaluate the kinetics and mechanism of drug release from the microemulsions, the Korsmeyer–Peppas model, Hixson–Crowell model and Higuchi model, and the first order and zero order mathematical models, were used, and the best-fitted model was selected based on high regression coefficient (R^2) value for the release data.

[5] = Parallel artificial membrane permeability assay (PAMPA); assay type: in vitro ADME; conditions: room temperature, read-out: permeability coefficient (Pe)
Description: The test was carried out in a 96-well, MultiScreen-IP PAMPA (Millipore corporation) filter plate in order to evaluate the ability of compounds to diffuse from a donor compartment into an acceptor compartment. EtOH:PBS (30:70) mixture was selected as the acceptor medium for ME-1-OA and EtOH:PBS (5:95) for ME-2-OA. Each membrane was activated with a combination of lecithin and cholesterol, 10 g/L and 8 g/L, respectively, in 1,7-octadiene. Immediately after the deposition of the solution (5 µL), 250 µL of OA solution and appropriately diluted MEs-OA were added to each well of the donor plate. Each receptor plate was filled with 250 µL of acceptor medium. The plate was incubated at room temperature for 1 h. Then, the samples were withdrawn, properly diluted with methanol, centrifuged for 10 min at 14,000× g, and the OA concentration determined by HPLC-DAD. The permeability coefficient Pe (cm/s) was calculated according to the following equation: Pe=−ln 1−CAt/Ceq/A 1/VD+1/VAt where A is the active surface area (0.3 cm^2 × apparent porosity of the filter), VD and VA the well volume of the donor and acceptor plate (mL), respectively, t the incubation time (s), and CAt and CDt the concentration of OA in the acceptor and donor plate at time t, respectively. Ceq was calculated according to: Ceq=CDt × VD+CAt × VA/VA+VD

[6] = tested on: RAW 264.7 cells; experiment: MTT assay, cell viability without LPS; assay type: cell-based, murine; conditions: 18 h, compared to untreated control cells
Description: The murine macrophages RAW 264.7 cell line (ATCC TIB-71™) was used in this study. Cells were grown in DMEM culture medium supplemented with L-glutamine (2 mM), streptomycin (100 µg/mL) and penicillin (100 U/mL), and 10% Heat-Inactivated Fetal Bovine Serum (HI-FBS), at 37 °C in 5% CO2 atmosphere. HI-FBS was obtained by incubating FBS at 55 °C for 30 min. Upon reaching 90% confluence, macrophage subcultures were prepared by scraping cells and adding appropriate dilutions of the cell suspension to a new plate. The culture medium was replaced every 3 days. The Methyl Thiazolyl Tetrazolium (MTT) assay was used to assess the viability of RAW 264.7 cells under various experimental conditions. Cells were seeded in a 96-well plate (15 × 10^3 cells/well) in complete medium and incubated overnight. Next, cells were starved for 6 h, and then treated for an additional 18 h with OA and OA loaded in the two different formulations (ME-1-OA and ME-2-OA) at various concentrations, in the absence or presence of LPS (1 μg/mL). […] Subsequently, cells were incubated with a 0.5 mg/mL solution of MTT (100 μL/well) for 1 h in the dark at 37 °C. After a wash in PBS, the insoluble formazan crystals were dissolved by adding 100 μL/well of dimethyl sulfoxide (DMSO). The iMARK microplate reader (Bio-Rad, Hercules, CA, USA) was used to measure absorbance values at a wavelength of 595 nm. […]

[7] = parameters: method as in PMID 17163409; conditions: water; cited from earlier work
[8] = parameters: method as in PMID 17163409; conditions: rats, oral doses of 25 and 50 mg/kg; cited from earlier work
[9] = LPS 1 μg/mL, compared with unstimulated control cells

## lipopolysaccharide [LPS, reference compound]
[1]; [9]
  cell viability: 70 ± 7%
[2]; [9]
  intracellular ROS levels: 165 ± 7%

## CC1(C)CC[C@]2(C(=O)O)CC[C@]3(C)C(=CC[C@@H]4[C@@]5(C)CC[C@H](O)C(C)(C)[C@@H]5CC[C@]43C)[C@@H]2C1 [OA, Oleanolic acid]
[3]; oil or lipid, in Capmul PG-8/NF, 24 h at 25 °C
  solubility at 24 h: 19.72 ± 0.13 mg/mL (≈ 43.2 mM)
[3]; oil or lipid, in Capmul PG-12/NF, 24 h at 25 °C
  solubility at 24 h: 16.4 ± 1.04 mg/mL (≈ 36 mM)
[3]; oil or lipid, in Capryol 90, 24 h at 25 °C
  solubility at 24 h: 24.9 ± 0.9 mg/mL (≈ 54.6 mM)
[3]; oil or lipid, in Captex 300, 24 h at 25 °C
  solubility at 24 h: 3.74 ± 0.1 mg/mL (≈ 8.19 mM)
[3]; oil or lipid, in Captex 355, 24 h at 25 °C
  solubility at 24 h: 3.19 ± 0.24 mg/mL (≈ 6.98 mM)
[3]; oil or lipid, in Etyloleate, 24 h at 25 °C
  solubility at 24 h: 2.13 ± 0.21 mg/mL (≈ 4.66 mM)
[3]; oil or lipid, in Isopropil myristate, 24 h at 25 °C
  solubility at 24 h: 9.44 ± 1.05 mg/mL (≈ 20.7 mM)
[3]; oil or lipid, in Labrafac Lipophile, 24 h at 25 °C
  solubility at 24 h: 13.3 ± 0.87 mg/mL (≈ 29.1 mM)
[3]; oil or lipid, in Labrasol ALF, 24 h at 25 °C
  solubility at 24 h: 12 ± 0.84 mg/mL (≈ 26.2 mM)
[3]; oil or lipid, in Labrasol, 24 h at 25 °C
  solubility at 24 h: 13.3 ± 0.21 mg/mL (≈ 29.1 mM)
[3]; oil or lipid, in Lauroglycole 90, 24 h at 25 °C
  solubility at 24 h: 10.8 ± 0.56 mg/mL (≈ 23.5 mM)
[3]; oil or lipid, in Nigella oil, 24 h at 25 °C
  solubility at 24 h: 35.4 ± 1.41 mg/mL (≈ 77.5 mM)
[3]; oil or lipid, in Soybean oil, 24 h at 25 °C
  solubility at 24 h: 1.06 ± 0.17 mg/mL (≈ 2.32 mM)
[3]; oil or lipid, in Sunflower oil, 24 h at 25 °C
  solubility at 24 h: 11.8 ± 0.46 mg/mL (≈ 25.7 mM)
[3]; oil or lipid, in Triacetine, 24 h at 25 °C
  solubility at 24 h: 3.09 ± 0.17 mg/mL (≈ 6.77 mM)
[3]; organic solvent or mixture, in PEG 400, 24 h at 25 °C
  solubility at 24 h: 8.49 ± 0.58 mg/mL (≈ 18.6 mM)
[3]; organic solvent or mixture, in Transcutol HP, 24 h at 25 °C
  solubility at 24 h: 41 ± 2.41 mg/mL (≈ 89.8 mM)
[3]; in Cremophor EL, 24 h at 25 °C
  solubility at 24 h: 28.3 ± 0.93 mg/mL (≈ 62 mM)
[3]; in Tween 20, 24 h at 25 °C
  solubility at 24 h: 6.19 ± 0.58 mg/mL (≈ 13.6 mM)
[3]; in Tween 80, 24 h at 25 °C
  solubility at 24 h: 4.56 ± 0.36 mg/mL (≈ 9.98 mM)
[4]
  OA released: 23.6 ± 1.25%
[5]
  Papp at 1 h: 0.369 ×10⁻⁶ cm/s
[6]; 0.05–1 μg/mL
  change in cell viability: No significant change in cell viability
[6]; 2.5–10 μg/mL
  reduction in cell viability: 25–30%
[1]; free OA 0.05–1 μg/mL with LPS 1 μg/mL
  protective effect against LPS-induced reduction of cell viability: no significant protective effect
[2]; free OA 0.25–1 μg/mL with LPS 1 μg/mL
  effect against LPS-induced intracellular ROS production: mild but significant
[7]
  aqueous solubility: 1.75 ng/mL (≈ 3.83e-06 mM)
[8]
  oral bioavailability: 0.7%
